“Also recorded” adds a separate entry of the source.
Legend:
rat NAFLD model [1] = experiment: 12-week choline deficient high fat diet rat study (NAFLD model); assay type: in vivo; details: for NAS score: 7 week group
Source text: NAFLD is diagnosed in the US as 3 million new cases each year. NASH is included in the NAFLD diagnosis, as it is the easiest to ascertain in a subject. NAFLD activity score (NAS) is scored as 0-2 not diagnostic, 3-4 ranges from not diagnostic/borderline/positive NASH, and 5-8 diagnostic of NASH; the NAS scoring system includes a composite of […] semi-quantitative features: steatosis (0-3), lobular inflammation (0-2), hepatocellular ballooning (0-2), and fibrosis (0-4). To analyze the effect of compound I-1 on NAFLD, NAS was analyzed in rats treated with vehicle or various doses of compound I-1 (100 mg/kg, 125 mg/kg was compared to escalation 30/60/100 mg/kg and 50/75/100 mg/kg BID, respectively in animals fed a choline deficient, high fat diet for 7 weeks (vehicle vs. 100 mg/kg vs 30/60/100 mg/kg) and 12 weeks (vehicle vs. 125 mg/kg vs 50/75/100 mg/kg). Plasma was collected at 1, 2, 3, 6, 8, 10, and 12 weeks and tested for cytokines and ALT, AST, Triglycerides, Cholesterol, and tBilirubin (measures of liver function). At 12 weeks the livers were collected and gene expression studies, immunohistochemistry, and hydroxyproline.

[2] = test system: delayed rectifier potassium current; experiment: In vitro inhibition of the delayed rectifier potassium current; assay type: cell-based
free MDA = experiment: Phase 1 trial, plasma biomarkers in healthy volunteers; assay type: in vivo, human; details: vs placebo
[3] = test system: large panel of ligand binding assays, ion channel assays, transporter assays, and enzyme inhibition studies; experiment: Secondary pharmacology studies (ligand binding, ion channel, transporter, enzyme inhibition panel)
Experimental: I-1 plasma concentrations are projected to have reached at least 10 μM, exceeding reported levels of RASP in humans with inflammatory diseases. The data support the potential of I-1, and RASP inhibition in general, in treating inflammation and fibrosis.

rat NAFLD model [4] = experiment: 12-week choline deficient high fat diet rat study (NAFLD model); assay type: in vivo; details: 11 Week Groups (Day 84)
[5] = test system: STAM mouse model (NASH/HCC); experiment: STAM mouse model (NASH/HCC); assay type: in vivo
Source text: The STAM™ model is a model that recapitulates the same disease progression as human NASH/HCC. In this model, male C57BL/6 mice aged two days are given a single dose of streptozotocin to reduce insulin secretory capacity. When the mice turn four weeks of age they start a high-fat diet feeding. This model has a background of late type 2 diabetes which progresses into fatty liver, NASH, fibrosis and consequently liver cancer (HCC). Compared to other NASH-HCC model mice, the disease progresses in a relatively short period of time, and liver cancer is developed in 100% of animals at 20 weeks of age. The model is widely used in NASH research, with more than 40 papers and 70 international conferences published using data from the STAM™ model so far. STAM™ model is able to reproduce many of the pathological features of human NASH. For example: ballooning degeneration of cells, a characteristic pathological feature of human NASH; burned-out NASH, in which lipid droplets decrease as fibrosis progresses; progression of fibrosis occurring around the central vein; a mild rise in ALT (a liver injury marker); increase in NASH markers such as CK-18; increase in human HCC markers such as glutamine synthase, glypican-3 and AFP have been observed.
In a STAM mouse model (NASH/HCC), animals at birth are given a low dose of STZ (200 ug) and then at 3 to 4 weeks these animals are fed a high fat diet. In the progression of the animal model, at 5 weeks fatty liver is evident, 7 weeks NASH is evident, 9 weeks fibrosis is evident, and at 10 weeks nodules are evident and necropsy is performed. In this study, three groups vehicle (0.5% methylcellulose) alone, BID (200 mg/kg in vehicle, BID=twice a day), and QID (200 mg/kg in vehicle, QID=[…]), dosing began at 4 weeks and continued to week ten of the animal model.

[6] = plasma, 7 week and 12 week groups, vs vehicle
[7] = after high-fat meal on Day 10, 600 mg BID
[8] = 200 mg/kg in 0.5% methylcellulose, BID and QID groups, week 4 to 10

- potential to inhibit the delayed rectifier potassium current [2]: very low potential
- risk of off-target effects [3]: low risk of off-target effects
SMILES: CC(C)(O)c1nc2ccccc2cc1N [I-1]
- liver fibrosis (picrosirius red histopathology) (rat NAFLD model [1]; 7 week and 12 week groups): trended to have reduced
- liver inflammation (hematoxylin eosin histopathology) (rat NAFLD model [1]; 7 week and 12 week groups): trended to have reduced
- NAS score (rat NAFLD model [1]; 100 mg/kg, vs vehicle): statistical significant reduction
- NAS score (rat NAFLD model [1]; 30/60/100 mg/kg escalation): reduced
- MCP expression levels (rat NAFLD model [1]; 12 week group, vs vehicle): remained similar to vehicle
- MIP expression levels (rat NAFLD model [1]; 12 week group, vs vehicle): reduction
- Rantes expression levels (rat NAFLD model [1]; 12 week group, vs vehicle): remained similar to vehicle
- cholesterol (rat NAFLD model [1]; [6]): trended at lower values than vehicle
- triglycerides (rat NAFLD model [1]; [6]): trended at lower values than vehicle
- free MDA levels in plasma (free MDA; 600 mg BID over 10 days): decrease in free MDA levels was observed
- levels of HDL (free MDA; [7]): statistically higher
- levels of free fatty acids (free MDA; [7]): statistically lower
- NAS scores (rat NAFLD model [4]): lower
- hepatic fibrosis [5, 8]: significantly reduced; also recorded: significant reduction
- hepatic triglycerides [5, 8]: significantly reduced; also recorded: significant reduction
- body weight gain ([5]; 200 mg/kg in methylcellulose, BID and QID (FIG. 10: QD or BID), vs vehicle): statistically significant reduction

From patent publication US20230149383A1, “QUINOLINE COMPOUNDS FOR TREATING LUNG, LIVER, AND KIDNEY DISEASES, DISORDERS, OR CONDITIONS” (Aldeyra Therapeutics, Inc., priority 2020, published 2023)
